In PubChem BioAssay AID1259407 (Chemical Carcinogenesis Research Information System (CCRIS), 2018):
Calls of active or inactive are those of the source. The rule behind the calls is not given here.

System: CCRIS mutagenicity, Ames/micronucleus/aberration tests
Assay: CCRIS mutagenicity studies
[1] = Test System: AMES SALMONELLA TYPHIMURIUM, Strain/Indicator: TA98, Metabolic Activation: NONE, Method: STANDARD PLATE
[2] = Test System: AMES SALMONELLA TYPHIMURIUM, Strain/Indicator: TA98, Metabolic Activation: RAT, LIVER, S-9, AROCLOR 1254, Method: STANDARD PLATE
[3] = Test System: AMES SALMONELLA TYPHIMURIUM, Strain/Indicator: TA100, Metabolic Activation: NONE, Method: STANDARD PLATE
[4] = Test System: AMES SALMONELLA TYPHIMURIUM, Strain/Indicator: TA100, Metabolic Activation: RAT, LIVER, S-9, AROCLOR 1254, Method: STANDARD PLATE
[5] = Test System: AMES SALMONELLA TYPHIMURIUM, Strain/Indicator: TA1538, Metabolic Activation: NONE, Method: STANDARD PLATE
[6] = Test System: AMES SALMONELLA TYPHIMURIUM, Strain/Indicator: TA98, Metabolic Activation: S-9, Method: STANDARD PLATE
[7] = Test System: AMES SALMONELLA TYPHIMURIUM, Strain/Indicator: TA100, Metabolic Activation: S-9, Method: STANDARD PLATE

Measured: mutagenic call

Nc1nc(Cl)cc(Cl)n1
inactive: Test System: AMES SALMONELLA TYPHIMURIUM, Strain/Indicator: TA98, Metabolic Activation: HAMSTER, LIVER, S-9, AROCLOR 1254, Method: STANDARD PLATE inactive; negative | [1] inactive; negative | [2] inactive; negative | Test System: AMES SALMONELLA TYPHIMURIUM, Strain/Indicator: TA100, Metabolic Activation: HAMSTER, LIVER, S-9, AROCLOR 1254, Method: STANDARD PLATE inactive; negative | [3] inactive; negative | [4] inactive; negative | Test System: AMES SALMONELLA TYPHIMURIUM, Strain/Indicator: TA1535, Metabolic Activation: HAMSTER, LIVER, S-9, AROCLOR 1254, Method: STANDARD PLATE inactive; negative | Test System: AMES SALMONELLA TYPHIMURIUM, Strain/Indicator: TA1535, Metabolic Activation: NONE, Method: STANDARD PLATE inactive; negative | Test System: AMES SALMONELLA TYPHIMURIUM, Strain/Indicator: TA1535, Metabolic Activation: RAT, LIVER, S-9, AROCLOR 1254, Method: STANDARD PLATE inactive; negative | Test System: AMES SALMONELLA TYPHIMURIUM, Strain/Indicator: TA1537, Metabolic Activation: HAMSTER, LIVER, S-9, AROCLOR 1254, Method: STANDARD PLATE inactive; negative | Test System: AMES SALMONELLA TYPHIMURIUM, Strain/Indicator: TA1537, Metabolic Activation: NONE, Method: STANDARD PLATE inactive; negative | Test System: AMES SALMONELLA TYPHIMURIUM, Strain/Indicator: TA1537, Metabolic Activation: RAT, LIVER, S-9, AROCLOR 1254, Method: STANDARD PLATE inactive; negative | Test System: AMES SALMONELLA TYPHIMURIUM, Strain/Indicator: TA1538, Metabolic Activation: HAMSTER, LIVER, S-9, AROCLOR 1254, Method: STANDARD PLATE inactive; negative | [5] inactive; negative | Test System: AMES SALMONELLA TYPHIMURIUM, Strain/Indicator: TA1538, Metabolic Activation: RAT, LIVER, S-9, AROCLOR 1254, Method: STANDARD PLATE inactive; negative
active: Test System: MOUSE LYMPHOMA, Strain/Indicator: L5178Y (TK+/TK-), Metabolic Activation: NONE, Method: SUSPENSION/PLATE active; positive. reevaluation of results: positive | Test System: MOUSE LYMPHOMA, Strain/Indicator: L5178Y (TK+/TK-), Metabolic Activation: RAT, LIVER, S-9, AROCLOR 1254, Method: SUSPENSION/PLATE active; positive. reevaluation of results: inconclusive

O=Nc1ccc2ccccc2c1
active: [1] active; positive | [6] active; positive | [3] active; positive | [7] active; positive | [5] active; positive

CC(C)OC(=O)c1cc(NC(=S)OC(C)C)ccc1Cl
inactive: Test System: Mouse lymphoma, Strain/Indicator: L5178Y (tk+/tk-), Metabolic Activation: None, Method: Suspension/plate inactive; negative | Test System: Mouse lymphoma, Strain/Indicator: L5178Y (tk+/tk-), Metabolic Activation: Rat, Liver, S-9, Aroclor 1254, Method: Suspension/plate inactive; negative

Oc1ccc(Cl)cc1
active: Test System: AMES SALMONELLA TYPHIMURIUM, Strain/Indicator: TA97, Metabolic Activation: RAT, LIVER, S-9, AROCLOR 1254, Method: STANDARD PLATE active; positive | [2] active; positive | [6] active; positive | [4] active; positive
inactive: Test System: AMES SALMONELLA TYPHIMURIUM, Strain/Indicator: TA97, Metabolic Activation: NONE, Method: STANDARD PLATE inactive; negative | [1] inactive; negative | [3] inactive; negative | [7] inactive; negative | Test System: AMES SALMONELLA TYPHIMURIUM, Strain/Indicator: TA104, Metabolic Activation: NONE, Method: STANDARD PLATE inactive; negative | Test System: AMES SALMONELLA TYPHIMURIUM, Strain/Indicator: TA104, Metabolic Activation: RAT, LIVER, S-9, AROCLOR 1254, Method: STANDARD PLATE inactive; negative

CC(=O)CC1CCC(=O)CCC(=O)OC(CC(C)=O)CCC(O)CCC(=O)O1 (stereo not given)
inactive: Test System: CHINESE HAMSTER V-79, Strain/Indicator: V-79 (HPRT)/6-THIOGUANINE, Metabolic Activation: NONE inactive; negative
